These results are taken from publication PMC8300761, “In Vitro Antifungal Activity and Toxicity of Dihydrocarvone-Hybrid Derivatives against Monilinia fructicola” (Antibiotics, 2021).

In data set [1] the test system is Monilinia fructicola strain 1 (S1). Kind of data set: radial mycelial growth test, M. fructicola strain 1 (S1). It is filed as cell-based. To be noted: PDA, 120 h at 24 °C in the dark; for EC50: Monilinia fructicola, 120 h, n = 6, read-out: EC50 ± SD, mycelial growth inhibition; for EC50 ± SD, mycelial growth inhibition: n = 6. The source says:
(§1) Both strains (S1 and S2) of M. fructicola were kindly provided by the phytopathology laboratory of the Servicio Agrícola y Ganadero de Chile (SAG), Santiago, Chile. The isolate S1 was recovered from infected peach from commercial orchards in the O’Higgins region, Chile, and the isolate S2 was recovered from infected nectarines from commercial orchards in the province of Maipo, Metropolitan Region, Chile and identified to species level with a PCR assay developed by the molecular biology laboratory belonging to SAG; these were maintained on potato dextrose agar (PDA) and incubated for 120 h at 24 °C.
(§2) The antifungal activity of all dihidrocarvone-hybrid derivatives (2–9) against both strains of M. fructicola was determined by the radial test previously reported. The test compounds were dissolved in ethanol (5% v/v) and added to the potato dextrose agar medium (PDA) medium in the petri dishes to obtain a final concentration of 10, 25, 50, 150, and 250 µg/mL. The mycelial growth diameters were measured after 120 h of incubation at 24 °C in the dark, and the inhibition percentages were calculated with respect to the negative ethanol control. The commercial fungicides Mystic® 520 SC (Pyrimethanil 400 g/L, Trifloxystrobin 120 g/L) (Lot: PAIS004727; Bayer, Santiago, Chile) and BC-1000® (grapefruit seed and pulp extract (Citrus x paridisi), 50% w/v (500 g/L)) were used as positive controls and were measured under the same conditions as the compounds.
(§3) The results were expressed as the effective concentration (EC50) that reduced mycelial growth by 50%. This value was determined by regressing the values of the percentage inhibition of radial growth against the compound concentration values. The fit analysis was performed using the Origin Pro® V. 8.0 software (OriginLab Corporation, Northampton, Massachusetts, EE.UU). These experiments were performed in triplicate and each assay was performed twice (n = 6). Significant differences were determined using a one-way analysis of variance, followed by a pairwise comparison of means (LSD test; p < 0.05) (Microsoft Office Excel® 2016).

The subject of data set [2] is Monilinia fructicola strain 2 (S2). Kind of data set: radial mycelial growth test, M. fructicola strain 2 (S2). It is filed as cell-based. The following applies: PDA, 120 h at 24 °C in the dark, n = 6, read-out: EC50 ± SD, mycelial growth inhibition.
Text: as §1, §2, §3

A further data set concerns Artemia salina L. larvae. The data set is described as follows: brine shrimp lethality test (BSLT). It is filed as in vivo. The following applies: for LD50 (BSLT): Artemia salina larvae, 24 h, probit analysis. The method, then: The assay was carried out according to the principle and protocol previously described. Briefly, Artemia salina L. eggs were inserted into a box containing seawater; the box was placed under a UV lamp; after 48 h, the eggs hatched into larvae and were ready for the test. All of the compounds were dissolved in methanol at final concentrations of 1000 to 10 µg/mL. After 24 h, the live and dead shrimp were counted. The experiment was conducted in triplicate. The median lethal concentrations (LD50) with 95% confidence intervals were determined using the Probit analysis method. For LC50 values, probit analysis was used with Minitab V. 15 software (Minitab® Statistical Software, State College, PA, USA).

For data set [3], the system named is both strains of M. fructicola. The data set is described as follows: radial mycelial growth test, inhibition percentages over both strains. It is filed as cell-based. To be noted: Monilinia fructicola, range over strains 1 and 2, read-out: inhibition percentage of mycelial growth.
Text: as §1
as §2, with “The test compounds were dissolved in ethanol (5% v/v) and added to the potato dextrose agar medium (PDA) medium in the petri dishes to obtain a final concentration of 10, 25, 50, 150, and 250 µg/mL.” left out, “compounds. […]” for “compounds.”

The structures appear in SMILES notation. Converted amounts (≈) assume the structure as drawn.

For orientation: EC50 means the concentration giving half of the maximal effect. Take `C=C(C)[C@@H]1CCC(C)C(=O)C1=Cc1cccc(OC)c1` (stereo partly drawn) [Compound 4, (3S)-3-isopropenyl-2-(3-methoxybenzylidene)-6-methylcyclohexanone]: the values for the EC50 in data set [1] and in data set [2] were 273.2 ± 0.9 µg/mL (≈ 1010 µM) and 39.6 ± 1.1 µg/mL (≈ 146 µM), respectively. Further, the “LD50 (BSLT)” value in the data set with Artemia salina L. larvae was more than 1000 µg/mL.

For the compound `C=C(C)[C@@H]1CCC(C)C(=O)C1=Cc1ccc(OC)c(OC)c1` (stereo partly drawn) [Compound 6, (3S)-2-(3,4-dimethoxybenzylidene)-3-isopropenyl-6-methylcyclohexanone], the concentration for a half-maximal effect (EC50) in data set [1] is more than 250 µg/mL; in data set [2] it was 47.7 ± 0.8 µg/mL (≈ 159 µM). In addition, the “LD50 (BSLT)” value in the data set with Artemia salina L. larvae is 954 µg/mL.

For the compound `C=C(C)[C@@H]1CCC(C)C(=O)C1=Cc1ccc2c(c1)OCO2` (stereo partly drawn) [Compound 7, (3S)-2-(1,3-benzodioxol-5-ylmethylene)-3-isopropenyl-6-methylcyclohexanone], the EC50 in data set [1] was 146 to 148 µg/mL (≈ 513 to 521 µM); in data set [2], 18.1 µg/mL (≈ 63.7 µM). For the same compound, in data set [1], the “EC50 ± SD, mycelial growth inhibition” value is recorded as 148.1 ± 1.4 µg/mL (≈ 521 µM). Further, the “LD50 (BSLT)” value in the data set with Artemia salina L. larvae was found to be 910 µg/mL.

Turning to `C=C(C)[C@@H]1CCC(C)C(=O)C1=Cc1ccc(OC)cc1` (stereo partly drawn) [Compound 5, (3S)-3-isopropenyl-2-(4-methoxybenzylidene)-6-methylcyclohexanone], the EC50 in data set [1] was more than 250 µg/mL; in data set [2], 23.1 ± 1.2 µg/mL (≈ 85.4 µM). The “LD50 (BSLT)” value with Artemia salina L. larvae is given as more than 1000 µg/mL.

What is called inhibition is the drop in the measured response relative to a control, in per cent. In the case of `C=C(C)[C@@H]1CCC(C)C(=O)C1=Cc1cccc(O)c1` (stereo partly drawn) [Compound 8, (3S)-2-(3-hydroxybenzylidene)-3-isopropenyl-6-methylcyclohexanone], in data set [1], the EC50 is 146 to 148 µg/mL (≈ 569 to 578 µM) and the “EC50 ± SD, mycelial growth inhibition” value came to 145.9 ± 1.7 µg/mL (≈ 569 µM). Also, the EC50 in data set [2] was 15.7 ± 1.3 µg/mL (≈ 61.2 µM). The “LD50 (BSLT)” value in the data set on Artemia salina L. larvae came out at 890 µg/mL. Besides, the inhibition at 150 µg/mL in data set [3] (150 µg/mL) is 47 to 88%. For the same compound, the inhibition at 250 µg/mL in data set [3] (250 µg/mL) lay in the range of 62 to 97%.

`C=C(C)[C@@H]1CCC(C)C(=O)C1=Cc1ccccc1OC` (stereo partly drawn) [Compound 3, (3S)-3-isopropenyl-2-(2-methoxybenzylidene)-6-methylcyclohexanone]: the half-maximal effective concentration (EC50) is more than 250 µg/mL in data set [1] and 58 ± 0.7 µg/mL (≈ 215 µM) in data set [2]. In addition, the “LD50 (BSLT)” value in the data set on Artemia salina L. larvae is reported as more than 1000 µg/mL.

Turning to `C=C(C)[C@@H]1CCC(C)C(=O)C1=Cc1ccc(O)cc1` (stereo partly drawn) [Compound 9, (3S)-2-(4-hydroxybenzylidene)-3-isopropenyl-6-methylcyclohexanone], the EC50 in data set [1] and in data set [2] was more than 250 µg/mL throughout. Also, the “LD50 (BSLT)” value in the data set with Artemia salina L. larvae came to 847 µg/mL. Further, the “times less toxic than the commercial control of M. fructicola (BSLT)” value in the data set on Artemia salina L. larvae (compared with the commercial control (Mystic 520 SC)) was 80 times.

With `C=C(C)[C@@H]1CCC(C)C(=O)C1` (some centres unmarked) [Compound 1, Dihydrocarvone], the EC50 in data set [1] and in data set [2] was more than 250 µg/mL in each case. The “LD50 (BSLT)” value with Artemia salina L. larvae is 550 µg/mL.

In the case of `C=C(C)[C@@H]1CCC(C)C(=O)C1=Cc1ccccc1` (stereo partly drawn) [Compound 2, (3S)-2-benzylidene-3-isopropenyl-6-methylcyclohexanone], the EC50 in data set [1] and in data set [2] was more than 250 µg/mL in each case. In the data set on Artemia salina L. larvae, the “LD50 (BSLT)” value is reported as more than 1000 µg/mL.
